Source: patent US12295936B2, “Immunomodulating urea azalides” (Zoetis Services LLC, priority 2020, dated 2025)
Like-named read-outs stand apart in the source and are kept apart here.

Key:
Assay in all cases: LPS-stimulated whole bovine blood assay, MSD cytokine detection
Type in all cases: cell-based
TNF-α = details: Bos taurus, read-out: TNF-α (IC50 μM)
IL-6 = details: Bos taurus, read-out: IL-6 (IC50 μM)
Text: In order to correlate RNA sequencing data to cytokine changes the whole blood assay was utilized. […] The enhancement result represents an overall stimulation of cytokine levels due to cellular stress or potential toxicity with increasing concentrations of the compound, representing a typical bell shape response curve for immunomodulatory activity.

IL-1β = details: overstimulation of IL-1β, LPS-stimulated bovine whole blood
[1] = LPS-stimulated bovine whole blood

Row | IC50 (TNF-α; [1]) | IC50 (IL-6; [1]) | Structure (SMILES) | IL-1β OS of LPS (IL-1β) | IC50 (TNF-α) | IC50 (IL-6)
1 | > 500 µM | > 500 µM | CCNC(=O)N(C)[C@H]1C[C@@H](C)O[C@@H](O[C@@H]2[C@@H](C)[C@H](O[C@H]3C[C@@](C)(OC)[C@](O)(CN4CCN(C)CC4)[C@H](C)O3)[C@@H](C)C(=O)O[C@H](CC)[C@@](C)(O)[C@H](O)[C@@H](C)NC[C@H](C)C[C@@]2(C)O)[C@@H]1O [Example J-2, 3-ethyl-1-((2S,3R,4S,6R)-2-(((2R,3S,4R,5R,8R,10R,11R,12S,13S,14R)-2-ethyl-3,4,10-trihydroxy-13-(((2R,4R,5S,6S)-5-hydroxy-4-methoxy-4,6-dimethyl-5-((4-methylpiperazin-1-yl)methyl)tetrahydro-2H-pyran-2-yl)oxy)-3,5,8,10,12,14-hexamethyl-15-oxo-1-oxa-6-azacyclopentadecan-11-yl)oxy)-3-hydroxy-6-methyltetrahydro-2H-pyran-4-yl)-1-methylurea] | >500 µM | – | –
2 | > 500 µM | > 500 µM | CC[C@H]1OC(=O)[C@H](C)[C@@H](O[C@H]2C[C@@](C)(OC)[C@](O)(CN3CCN(C)CC3)[C@H](C)O2)[C@H](C)[C@@H](O[C@@H]2O[C@H](C)C[C@H](N(C)C(=O)Nc3cccnc3)[C@H]2O)[C@](C)(O)C[C@@H](C)CN[C@H](C)[C@@H](O)[C@]1(C)O [Example J-8, 1-((2S,3R,4S,6R)-2-(((2R,3S,4R,5R,8R,10R,11R,12S,13S,14R)-2-ethyl-3,4,10-trihydroxy-13-(((2R,4R,5S,6S)-5-hydroxy-4-methoxy-4,6-dimethyl-5-((4-methylpiperazin-1-yl)methyl)tetrahydro-2H-pyran-2-yl)oxy)-3,5,8,10,12,14-hexamethyl-15-oxo-1-oxa-6-azacyclopentadecan-11-yl)oxy)-3-hydroxy-6-methyltetrahydro-2H-pyran-4-yl)-1-methyl-3-(pyridin-3-yl)urea] | >500 µM | – | –
3 | 48 µM | 124 µM | CC[C@H]1OC(=O)[C@H](C)[C@@H](O[C@H]2C[C@@](C)(OC)[C@](O)(Cn3cncn3)[C@H](C)O2)[C@H](C)[C@@H](O[C@@H]2O[C@H](C)C[C@H](N(C)C(=O)N(C)c3ccccc3)[C@H]2O)[C@](C)(O)C[C@@H](C)CN[C@H](C)[C@@H](O)[C@]1(C)O [Example J-27, 1-((2S,3R,4S,6R)-2-(((2R,3S,4R,5R,8R,10R,11R,12S,13S,14R)-13-(((2R,4R,5S,6S)-5-((1H-1,2,4-triazol-1-yl)methyl)-5-hydroxy-4-methoxy-4,6-dimethyltetrahydro-2H-pyran-2-yl)oxy)-2-ethyl-3,4,10-trihydroxy-3,5,8,10,12,14-hexamethyl-15-oxo-1-oxa-6-azacyclopentadecan-11-yl)oxy)-3-hydroxy-6-methyltetrahydro-2H-pyran-4-yl)-1,3-dimethyl-3-phenylurea] | 250 µM | – | –

Further lines, the compound ahead of its results:

Row | Structure (SMILES) | IC50 (TNF-α; [1]) | IC50 (IL-6; [1]) | IL-1β OS of LPS (IL-1β) | IC50 (TNF-α) | IC50 (IL-6)
4 | CC[C@H]1OC(=O)[C@H](C)[C@@H](O[C@H]2C[C@@](C)(OC)[C@](O)(Cn3cnnn3)[C@H](C)O2)[C@H](C)[C@@H](O[C@@H]2O[C@H](C)C[C@H](N(C)C(=O)N(C)c3ccccc3)[C@H]2O)[C@](C)(O)C[C@@H](C)CN[C@H](C)[C@@H](O)[C@]1(C)O [Example J-29, 1-((2S,3R,4S,6R)-2-(((2R,3S,4R,5R,8R,10R,11R,12S,13S,14R)-13-(((2R,4R,5S,6S)-5-((1H-tetrazol-1-yl)methyl)-5-hydroxy-4-methoxy-4,6-dimethyltetrahydro-2H-pyran-2-yl)oxy)-2-ethyl-3,4,10-trihydroxy-3,5,8,10,12,14-hexamethyl-15-oxo-1-oxa-6-azacyclopentadecan-11-yl)oxy)-3-hydroxy-6-methyltetrahydro-2H-pyran-4-yl)-1,3-dimethyl-3-phenylurea] | – | – | 40 µM | 19 µM | 56 µM
5 | CC[C@H]1OC(=O)[C@H](C)[C@@H](O[C@H]2C[C@@](C)(OC)[C@](O)(CNCCN(C)C)[C@H](C)O2)[C@H](C)[C@@H](O[C@@H]2O[C@H](C)C[C@H](N(C)C(=O)N(C)c3ccccc3)[C@H]2O)[C@](C)(O)C[C@@H](C)CN[C@H](C)[C@@H](O)[C@]1(C)O [Example H-20, 1-((2S,3R,4S,6R)-2-(((2R,3S,4R,5R,8R,10R,11R,12S,13S,14R)-13-(((2R,4R,5S,6S)-5-(((2-(dimethylamino)ethyl)amino)methyl)-5-hydroxy-4-methoxy-4,6-dimethyltetrahydro-2H-pyran-2-yl)oxy)-2-ethyl-3,4,10-trihydroxy-3,5,8,10,12,14-hexamethyl-15-oxo-1-oxa-6-azacyclopentadecan-11-yl)oxy)-3-hydroxy-6-methyltetrahydro-2H-pyran-4-yl)-1,3-dimethyl-3-phenylurea] | 31 µM | > 500 µM | 6 µM | – | –
6 | CCCNC[C@]1(O)[C@H](C)O[C@@H](O[C@H]2[C@H](C)[C@@H](O[C@@H]3O[C@H](C)C[C@H](N(C)C(=O)N(C)c4cnn(C)c4)[C@H]3O)[C@](C)(O)C[C@@H](C)CN[C@H](C)[C@@H](O)[C@](C)(O)[C@@H](CC)OC(=O)[C@@H]2C)C[C@@]1(C)OC [Example H-58, 1-((2S,3R,4S,6R)-2-(((2R,3S,4R,5R,8R,10R,11R,12S,13S,14R)-2-ethyl-3,4,10-trihydroxy-13-(((2R,4R,5S,6S)-5-hydroxy-4-methoxy-4,6-dimethyl-5-((propylamino)methyl)tetrahydro-2H-pyran-2-yl)oxy)-3,5,8,10,12,14-hexamethyl-15-oxo-1-oxa-6-azacyclopentadecan-11-yl)oxy)-3-hydroxy-6-methyltetrahydro-2H-pyran-4-yl)-1,3-dimethyl-3-(1-methyl-1H-pyrazol-4-yl)urea] | – | – | >250 µM | > 250 µM | > 250 µM
7 | CCCNC[C@]1(O)[C@H](C)O[C@@H](O[C@H]2[C@H](C)[C@@H](O[C@@H]3O[C@H](C)C[C@H](N(CCC)C(=O)N(C)c4ccccc4)[C@H]3O)[C@](C)(O)C[C@@H](C)CN[C@H](C)[C@@H](O)[C@](C)(O)[C@@H](CC)OC(=O)[C@@H]2C)C[C@@]1(C)OC [Example H-69, 1-((2S,3R,4S,6R)-2-(((2R,3S,4R,5R,8R,10R,11R,12S,13S,14R)-2-ethyl-3,4,10-trihydroxy-13-(((2R,4R,5S,6S)-5-hydroxy-4-methoxy-4,6-dimethyl-5-((propylamino)methyl)tetrahydro-2H-pyran-2-yl)oxy)-3,5,8,10,12,14-hexamethyl-15-oxo-1-oxa-6-azacyclopentadecan-11-yl)oxy)-3-hydroxy-6-methyltetrahydro-2H-pyran-4-yl)-3-methyl-3-phenyl-1-propylurea] | 14 µM | 8 µM | 6 µM | – | –
8 | CC[C@H]1OC(=O)[C@H](C)[C@@H](O[C@H]2C[C@@](C)(OC)[C@@H](O)[C@H](C)O2)[C@H](C)[C@@H](O[C@@H]2O[C@H](C)C[C@H](N(C)C(=O)Nc3ccc(N(C)C)cc3)[C@H]2O)[C@](C)(O)C[C@@H](C)CN(C)[C@H](C)[C@@H](O)[C@]1(C)O [Example B-7, 3-(4-(dimethylamino)phenyl)-1-((2S,3R,4S,6R)-2-(((2R,3S,4R,5R,8R,10R,11R,12S,13S,14R)-2-ethyl-3,4,10-trihydroxy-13-(((2R,4R,5S,6S)-5-hydroxy-4-methoxy-4,6-dimethyltetrahydro-2H-pyran-2-yl)oxy)-3,5,6,8,10,12,14-heptamethyl-15-oxo-1-oxa-6-azacyclopentadecan-11-yl)oxy)-3-hydroxy-6-methyltetrahydro-2H-pyran-4-yl)-1-methylurea] | 156 µM | 143 µM | 100 µM | – | –
9 | CC[C@H]1OC(=O)[C@H](C)[C@@H](O[C@H]2C[C@@](C)(OC)[C@](O)(CNCC3CCN(C)CC3)[C@H](C)O2)[C@H](C)[C@@H](O[C@@H]2O[C@H](C)C[C@H](N(C)C(=O)N(C)c3ccccc3)[C@H]2O)[C@](C)(O)C[C@@H](C)CN[C@H](C)[C@@H](O)[C@]1(C)O [Example H-30, 1-((2S,3R,4S,6R)-2-(((2R,3S,4R,5R,8R,10R,11R,12S,13S,14R)-2-ethyl-3,4,10-trihydroxy-13-(((2R,4R,5S,6S)-5-hydroxy-4-methoxy-4,6-dimethyl-5-((((1-methylpiperidin-4-yl)methyl)amino)methyl)tetrahydro-2H-pyran-2-yl)oxy)-3,5,8,10,12,14-hexamethyl-15-oxo-1-oxa-6-azacyclopentadecan-11-yl)oxy)-3-hydroxy-6-methyltetrahydro-2H-pyran-4-yl)-1,3-dimethyl-3-phenylurea] | 250 µM | > 250 µM | 250 µM | – | –
10 | CCCN(C[C@]1(O)[C@H](C)O[C@@H](O[C@H]2[C@H](C)[C@@H](O[C@@H]3O[C@H](C)C[C@H](N(C)C(N)=O)[C@H]3O)[C@](C)(O)C[C@@H](C)CN[C@H](C)[C@@H](O)[C@](C)(O)[C@@H](CC)OC(=O)[C@@H]2C)C[C@@]1(C)OC)C(N)=O [Example H-22, 1-((2S,3R,4S,6R)-2-(((2R,3S,4R,5R,8R,10R,11R,12S,13S,14R)-2-ethyl-3,4,10-trihydroxy-13-(((2R,4R,5S,6S)-5-hydroxy-4-methoxy-4,6-dimethyl-5-((1-propylureido)methyl)tetrahydro-2H-pyran-2-yl)oxy)-3,5,8,10,12,14-hexamethyl-15-oxo-1-oxa-6-azacyclopentadecan-11-yl)oxy)-3-hydroxy-6-methyltetrahydro-2H-pyran-4-yl)-1-methylurea] | > 500 µM | > 500 µM | >500 µM | – | –
